# Source: US20080311657A1, “Killing Human Lymphoma and Leukemia Cancer Cells and Tcr-Activated Normal Human Cells By Dopamine D1r Agonists” (priority 2005, published 2008)
# Columns and labels:
# Type in all cases: cell-based
# [1] = tested on: Human T-cell leukemia (Jurkat) cells; experiment: Number of living cells counted by flow cytometry (FACSort) after D1R agonist; details: 10^−3M-10^−6M, 3 days
# Experimental: Afterwards, the microtiter plates were placed in an incubator (37° C., humidified incubator, 5% CO2) for 3 days. Then, the number of living cells was evaluated by flow cytometry (the cells were counted by FACsort for a fixed time length of 1 min, in which 100 microliter of each sample was tested). Of note, A 77636 hydrochloride is an orally-active D1R agonist, according to the manufacturer (Tocris).
# (§1) Afterwards, the microtiter plates were placed in an incubator (37° C., humidified incubator, 5% CO2) for 3 days. Then, the number of living cells was evaluated by flow cytometry (the cells were counted by FACsort for a fixed time length of 1 min, in which 100 microliter of each sample was tested).
# (§2) The experiment was designed to test the effect of exposing the cells to the D1R agonist for 1 min, 15 min, 1 hr or 72 hr. Thus, 1 min, or 15 min or 1 hr after the addition of the D1R agonist, the corresponding cells were transferred into tubes, centrifuged (1000 rpm for 10 min); and the supernatant was removed. […] Thus, its medium was not replaced, and these cells and remained as such in the incubator for 72 hr. At the end of the 72 hr incubation, the number of living cells was evaluated by flow cytometry (the cells were counted by FACsort for a fixed time length of 1 min, in which 100 microliter of each sample was tested).
# (§3) Cell viability was tested afterwards.
# (§4) For this purpose, the Jurkat T-cell leukemia line, the HuT-78 human T-lymphoma (cutaneous “Sezary” T-lymphoma) line, and the K-562 human Chronic-Myeloid Leukemia (CML) and Daudi Human B-lymphoma (Burkitt's lymphoma) lines were seeded in tissue culture wells (0.5 million cells/0.5 ml/well).
# (§5) Cell survival/death was evaluated 3 days later by counting the number of living cells, using flow cytometry.
# [2] = tested on: Human cutaneous Sezary T-lymphoma cells (HuT-78); experiment: as above; details: 10^−3M-10^−6M, 3 days
# Experimental: (§6) Human cutaneous Sezary T-lymphoma cells (HUT-78) were seeded in 96 well plates (0.5 ml per well of 0.5 million cells/ml) and A 77636 hydrochloride was added and diluted 1:00 into the wells at starting concentrations of 10^−1M-10^−4M, so that the final concentration range tested was 10^−3M-10^−6M. Afterwards, the microtiter plates were placed in an incubator (37° C., humidified incubator, 5% CO2) for 3 days. Then, the number of living cells was evaluated by flow cytometry (the cells were counted by FACsort for a fixed time length of 1 min, in which 100 microliter of each sample was tested).
# as §6, with “68930” for “77636”
# as §6, with “SKF 38393 hydrobromide” for “A 77636 hydrochloride”
# Cell viability was tested afterwards. […]
# as §5
# [3] = tested on: Human chronic myelogenous leukemia cells (CML) (K-562); experiment: as above; details: for Cell death by number of living cells (FIGS. 22-24), in words: 10^−3M-10^−6M, 3 days; for No. of Cells: 1 × 10^−4M; for No. of Cells / Killing, in words (Table 6): 1 hour; for Killing, in words (Table 6): 10^−4 M
# Experimental: as §6, with “chronic myelogenous leukemia” for “cutaneous Sezary T-lymphoma”, “(CML) (K-562)” for “(HUT-78)”
# as §6, with “chronic myelogenous leukemia” for “cutaneous Sezary T-lymphoma”, “(CML) (K-562)” for “(HUT-78)”, “68930” for “77636”
# as §6, with “chronic myelogenous leukemia” for “cutaneous Sezary T-lymphoma”, “(CML) (K-562)” for “(HUT-78)”, “SKF 38393 hydrobromide” for “A 77636 hydrochloride”
# as §2, with “Human chronic myelogenous leukemia cells (CML) (K-562) were seeded in 96 well plates (0.5 ml per well of 0.5 million cells/ml) and A 77636 hydrochloride was added and diluted 1:00 into the wells, at a fixed starting concentration of 10^−2M, so that the final concentration tested was 10^−4M. The” for “The”, “min),” for “min);”
# as §3, §4, §5
# (§7) The effect of dopamine itself (that can of course activate all its D1R-5 receptors) was also tested. All of these molecules were tested at a similar concentration (10^−4 M). […] The specificity and restriction of the effect to the D1R is also seen in Tables 7 and 8.
# [4] = tested on: Human Burkitt's B-lymphoma cells (Daudi); experiment: as above; details: for Cell death by number of living cells (FIGS. 16-18), in words: 10^−3M-10^−6M, 3 days; for No. of Cells: 1 × 10^−4M; for No. of Cells / Killing, in words (Table 5): 1 hour; for Killing, in words (Table 5): 10^−4 M
# Experimental: as §6, with “Burkitt's B-lymphoma” for “cutaneous Sezary T-lymphoma”, “(Daudi)” for “(HUT-78)”, “Afterwards, the microtiter plates were placed in an incubator (37° C., humidified incubator, 5% CO2) for 3 days.” left out
# as §6, with “Burkitt's B-lymphoma” for “cutaneous Sezary T-lymphoma”, “(Daudi)” for “(HUT-78)”, “68930” for “77636”, “Afterwards, the microtiter plates were placed in an incubator (37° C., humidified incubator, 5% CO2) for 3 days.” left out
# […] Then, the number of living cells was evaluated by flow cytometry (the cells were counted by FACsort for a fixed time length of 1 min, in which 100 microliter of each sample was tested).
# as §3, §7
# [5] = tested on: Human Burkitt's B-cell lymphoma (Raji) cells; experiment: as above; details: 10^−3M-10^−6M, 3 days
# Experimental: as §1, §3
# [6] = tested on: resting normal human T-cells; experiment: as above; details: 10^−3M-10^−6M, 3 days
# Experimental: as §1
# FIGS. 31A and B are graphs showing that A 77636 hydrochloride kills much more TCR-activated (FIG. 31B) than resting normal (FIG. 31A) human T-cells. […] The cells were then transferred to the incubator for 72 hr incubation. At the end of the 72 hr incubation, the number of living cells in each well was evaluated by flow cytometry (the cells were counted by FACsort for a fixed time length of 1 min, in which 100 microliter of each sample was tested).
# as §3
# [7] = tested on: Human Sezary T-Cell Lymphoma (HuT 78) Cells; experiment: Cell number, necrosis and apoptosis by Annexin V/PI flow cytometry; details: 1 × 10^−4M, exposed for 1 hr; for % Necrotic Cells: Annexin V+ PI+; for % Apoptotic Cells: Annexin V+ PI−
# Experimental: (§8) Measurement of cell death by flow cytometry and detection of phosphatidyl serine was performed using the IQ Products kit (R&D systems), according to the manufacturers instructions.
# (§9) In detail: The Phosphatidyl Serine Detection kit provides a rapid and reliable method for the detection of apoptosis by flow cytometry. This method enables detection at the single-cell level, and also allows the distinction between apoptosis and necrosis.
# (§10) During the early stages of apoptosis, phosphatidyl serine (PS) becomes exposed on the outside of the cell membrane. This early stage of apoptosis can be specifically detected by PS binding proteins (Annexin V).
# (§11) During the early stages of apoptosis, the cell membrane is intact and the cells exclude propidium iodide (PI). Later, during the apoptosis process, the membrane becomes porous and PI becomes associated with DNA. The uptake of PI is an indication of necrosis.
# as §7
# (§12) Cancer death induced by selective D1R agonists occurs via necrosis. To study the mechanism by which the cancer cells die, due to their incubation with DR1 agonists, the phosphatidyl serine detection kit was used. This kit provides a rapid and reliable method for the detection of apoptosis by flow cytometry, enables detection at the single-cell level, and also allows the distinction between apoptosis and necrosis.
# (§13) During the early stages of apoptosis, phosphatidyl serine (PS) becomes exposed on the outside of the cell membrane. This early stage of apoptosis can be specifically detected by PS binding proteins (Annexin V). During the early stages of apoptosis, the cell membrane is intact and the cells exclude propidium iodide (PI). Later, during the apoptosis process, the membrane becomes porous and PI becomes associated with DNA. The uptake of PI is an indication of necrosis. Thus, Annexin V^+ PI^− are considered cells that are undergoing apoptosis, while Annexin V^+ PI^+ are considered cells that are undergoing necrosis. Live cells are Annexin V^− PI^−.
# [8] = tested on: Human T-Cell Leukemia (Jurat) Cells; experiment: as above; details: 1 × 10^−4M, exposed for 1 hr; for % Necrotic Cells: Annexin V+ PI+; for % Apoptotic Cells: Annexin V+ PI−
# Experimental: as §8, §9, §10, §11, §7, §12, §13
Compound,"Cell death by number of living cells (FIGS. 10-12), in words [1]","Cell death by number of living cells (FIGS. 13-15), in words [2]","Cell death by number of living cells (FIGS. 22-24), in words [3]","Cell death by number of living cells (FIGS. 16-18), in words [4]","Cell death by number of living cells (FIGS. 19-21), in words [5]","Killing effect by number of living cells (FIGS. 25-27), in words [6]",No. of Cells [3],"Killing, in words (Table 6) [3]",No. of Cells [4],"Killing, in words (Table 5) [4]",No. of Cells [7],% Necrotic Cells [7],% Apoptotic Cells [7],No. of Cells [8],% Necrotic Cells [8],% Apoptotic Cells [8]
"Br.Oc1cc2c(cc1O)C(c1ccccc1)CNCC2 (racemic) [SKF 38393 hydrobromide, (±)-1-phenyl-2,3,4,5-tetrahydro-(1H)-3-benzazepine-7,8-diol hydrobromide]",induces marked cell death,induces marked cell death,induces marked cell death,induces marked cell death,induces marked cell death,significantly milder killing effect,,,,,,,,,,
"Cl.NC[C@@H]1O[C@H](c2ccccc2)Cc2c1ccc(O)c2O (racemic) [A 68930 hydrochloride, cis-(±)-1-(aminomethyl)-3,4-dihydro-3-phenyl-1H-2-benzopyran-5,6-diol hydrochloride]",induces marked cell death,induces marked cell death,induces marked cell death,induces marked cell death,induces marked cell death,significantly milder killing effect,,,,,,,,,,
"CCCN1CCC[C@@H]2Cc3n[nH]cc3C[C@H]21 [D2R Agonist, Quinpirole]",,,,,,,"27,360",no such effect,"20,805",no such effect,"23,880",21.97%,12.00%,"7,395",7.65%,1.38%
"CCCN(CCC)C1CCc2ccc(O)cc2C1 (stereo not drawn) [D3R Agonist, 7-Hydroxy-DPAT]",,,,,,,"21,960",no such effect,"18,330",no such effect,"18,975",21.40%,14.67%,"9,300",10.27%,1.68%
NCCc1ccc(O)c(O)c1 [Dopamine],,,,,,,"24,480",not the CML,"5,325",killed the B-lymphoma cells,"16,395",39.80%,19.07%,"4,545",42.84%,7.06%
